In publication PMC7343212, “Lactoferrin-Hexon Interactions Mediate CAR-Independent Adenovirus Infection of Human Respiratory Cells” (Journal of Virology, 2020):
Bridges are numbered along the chain shown (N, C = ends). Where no end group is shown, it is not given here.

Assays:
HAdV-C5 hexon = biological target: T1, HAdV-C5 hexon (Human adenovirus C serotype 5, UniProt P04133); test: Surface plasmon resonance, HAdV-C5 hexon immobilized; type: binding; details: SPR Biacore T200, HAdV-C5 hexon on CM5 chip, analyte hLfcin1-49, 2-fold series 8 nM to 2 μM, HBS-EP+ pH 7.4, 25°C; average from three independent measurements
T1 construct: the top phase containing soluble viral components was recovered, and HAdV hexons were purified using monoclonal hexon antibodies; made in house; host or cells: A549 cells infected with wild-type HAdV-C5 (strain Ad75)
Description: Ten flasks of 70% confluent A549 cells were infected with HAdV-C5, HAdV-A31, or HAdV-B35. After initial inoculation, unbound virus was washed away, and approximately 30 ml of fresh medium (DMEM plus 20 mM HEPES [N-2-hydroxyethylpiperazine-NN-2-ethanesulfonic acid] plus 5% FBS) was added. At 48 h after infection, the cells were harvested by scraping into a small volume of DMEM, centrifuged, and resuspended in 6 ml of DMEM. The collected cells were lysed and the sample cleared by centrifugation. Virus was separated from soluble viral components by a CsCl gradient, as described previously ([59]). After ultracentrifugation, the top phase containing soluble viral components was recovered, and HAdV hexons were purified using monoclonal hexon antibodies (MAB8052) covalently attached to magnetic protein A/G beads (Pierce) using dimethyl pimelimidate (DMP) according to the manufacturer’s instructions. Bound hexons were washed three times using PBS to remove protein bound unspecifically, followed by elution in 50 μl of 200 mM glycine buffer at pH 2.5.
CM5 sensor chips, an amine-coupling kit, and HBS-EP+ buffer (10 mM HEPES, 150 mM NaCl, 3 mM EDTA, and 0.005% [vol/vol] surfactant P20 [pH 7.4]) were all purchased from GE Healthcare. All surface plasmon resonance (SPR) experiments were performed at 25°C in HBS-EP+ running buffer with adenovirus hexons immobilized on the sensor surface. […]

[1] = test system: human respiratory epithelial A549 cells (HAdV-C5_GFP); test: HAdV-C5_GFP transduction of A549 cells; type: cell-based; details: at this concentration (2 μM), Fig. 1D
Text: For all transduction experiments, GFP-expressing vectors were used. The HAdV_GFP vector was purchased from Vector Development Laboratory. All mutated HAdV-C5 vectors were generated in the laboratory of A. Plückthun at the University of Zürich using the AdEasy system (Agilent) to contain an internal ribosome entry site (IRES)-luciferase (Luc)-GFP cassette for detection of transduction. To investigate the role of integrins in transduction, HAdV-C5-IRES-GFP with an intact RGD loop in the penton base protein (-DMNDHAIRGDTFATRAE-) and HAdV-C5-ΔRGD-IRES-GFP (-DMNDTSRAEEKRAE-), known not to bind integrins ([40]), were generated. To determine the binding site for hLF/hLfcin on the hexon protein, hexon-mutated vectors were produced with HVR-1 of HAdV-C5 ([43]) replaced with the corresponding sequence of HAdV-A31, as well as a HAdV-C5 vector mutated in HVR-7 ([44]).
For experiments in A549 cells, 15,000 cells were seeded into a black 96-well plate with a transparent bottom. For experiments with CHO-K1 cells, 20,000 cells were seeded. After 24 h, HAdV-C5 vectors was complexed with 2 μM Lfcin or with ∼12 μM (1 mg/ml) of LF and, after 60 min, added to the cells on ice. The blocking of CAR using soluble HAdV-C5 fiber knob was performed using 10 μg/ml of recombinant knob. After another 60 min, unbound complex was washed away using Dulbecco’s modified Eagle’s medium (DMEM), followed by final addition of fresh medium. After 44 h, the cells were fixed using 4% paraformaldehyde (PFA) for 10 min, and GFP expression was imaged using a Trophos system (Luminy Biotech Entreprises). For the hexon chimeric viruses, transduction was instead quantified by measuring the luciferase activity at 44 h postinfection using a Pierce luciferase glow assay kit.

[2] = test system: A549 cells (HAdV-C5 virions); test: 35S-labeled HAdV-C5 virion binding to A549 cells; type: cell-based, Human; details: at this concentration (2 μM), Fig. 1C
Description: A549 cells were detached using phosphate-buffered saline (PBS) plus 0.05% EDTA with slow rocking at 37°C. Once detached, the cells were centrifuged at 1,500 × g for 5 min, resuspended in growth medium to about 2 × 10^6 cells/ml, and allowed to recover at 37°C, slowly rocking to keep the cells in suspension. While recovering, the HAdV-Lfcin complex was set up. Lfcin (2 μM), or an equivalent volume of PBS, was mixed with ^35S-labeled HAdV (15,000 particles/cell) in medium and left on ice at 4°C for 60 min. After 60 min of recovery, the cells were counted, and 150,000 viable cells were added to each well of a 96-V-shaped-well plate and centrifuged for 5 min at 1,500 × g. Once pelleted, the cells were resuspended in the HAdV-Lfcin solution or in HAdV-PBS solution and incubated on ice for 60 min at 4°C. After 60 min, the cells were pelleted and washed once in medium and once in PBS before the addition of scintillation fluid and quantification using a Wallac 1450 Microbeta counter (Trilux).

T1 sequence (P04133 2-952 limits assumed): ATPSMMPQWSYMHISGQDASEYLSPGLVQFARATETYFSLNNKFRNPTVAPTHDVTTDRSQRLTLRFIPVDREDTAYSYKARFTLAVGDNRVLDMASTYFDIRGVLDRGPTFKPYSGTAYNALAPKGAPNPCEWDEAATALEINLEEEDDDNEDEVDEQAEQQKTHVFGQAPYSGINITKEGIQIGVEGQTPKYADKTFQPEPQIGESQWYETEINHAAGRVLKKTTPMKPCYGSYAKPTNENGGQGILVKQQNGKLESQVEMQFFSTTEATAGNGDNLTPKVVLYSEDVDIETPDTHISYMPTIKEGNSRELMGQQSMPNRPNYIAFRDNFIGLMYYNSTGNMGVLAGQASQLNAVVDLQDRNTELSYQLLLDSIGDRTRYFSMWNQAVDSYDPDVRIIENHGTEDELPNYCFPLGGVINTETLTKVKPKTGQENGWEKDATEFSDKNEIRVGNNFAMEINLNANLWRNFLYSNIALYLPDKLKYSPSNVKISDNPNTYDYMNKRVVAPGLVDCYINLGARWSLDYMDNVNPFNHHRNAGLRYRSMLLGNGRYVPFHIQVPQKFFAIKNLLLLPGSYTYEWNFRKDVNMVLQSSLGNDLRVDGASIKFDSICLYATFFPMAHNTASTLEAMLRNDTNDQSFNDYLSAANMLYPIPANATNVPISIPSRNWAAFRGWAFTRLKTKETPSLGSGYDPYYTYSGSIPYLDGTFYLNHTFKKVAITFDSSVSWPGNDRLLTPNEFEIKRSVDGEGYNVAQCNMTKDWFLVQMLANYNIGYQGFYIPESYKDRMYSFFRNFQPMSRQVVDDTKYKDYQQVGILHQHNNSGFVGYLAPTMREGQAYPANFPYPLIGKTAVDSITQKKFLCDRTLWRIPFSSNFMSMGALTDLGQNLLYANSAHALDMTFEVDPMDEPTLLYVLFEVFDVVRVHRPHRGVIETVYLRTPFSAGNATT

Substance	Kd (HAdV-C5 hexon)	effect on HAdV-C5 transduction of A549 cells (in words) [1]	effect on HAdV-C5 binding to A549 cells (in words) [2]
GRRRRSVQWCAVSQPEATKCFQWQRNMRKVRGPPVSCIKRDSPIQCIQA (disulfide 10-46, 20-37) [hLfcin1-49, human lactoferricin]	730 ± 206 nM		
bLfcin17-31: bovine lactoferricin 17-31, standard solid-phase peptide synthesis (FKCRRWQWRMKKLGA; UniProt P24627 36-50, looked up, fragment) [reference compound]		no or little effect	no or little effect
bLfcin17-42: bovine lactoferricin 17-42, purchased from the Center for Food Technology (FKCRRWQWRMKKLGAPSITCVRRAFA; ends and bridges not checked; cysteine pairing not given here; UniProt P24627 36-61, looked up, fragment) [reference compound]		no or little effect	no or little effect
hLfcin18-42: human lactoferricin 18-42, solid-phase synthesis, cyclized in a two-step approach (KCFQWQRNMRKVRGPPVSCIKRDSP; not fully specified (bridges); also: cyclized in a two-step approach, kind and places not given here; UniProt P02788 37-61, looked up, fragment)		no or little effect	no or little effect
